Measured values: patent US7732460B2 (priority 2005, dated 2010)

Tested on: panel of Gram-positive organisms (Staphylococcus aureus, Streptococcus pneumoniae, Streptococcus pyogenes, Enterococcus faecalis, Enterococcus faecium) and …
Assay type: cell-based, Gram-positive and Gram-negative bacteria
Settings: against all of the strains representing the organisms listed; serial two-fold dilutions 0.016 to 16 mcg/mL

Structure (SMILES): COc1cnc2ccc(=O)n3c2c1[C@](O)(CN1CCC(NCc2cc4c(nn2)OCCO4)CC1)C3 [Example 66]
- MIC values: > 16 µg/mL
